According to ChEMBL document CHEMBL3507680, “University of Dundee, Gates Library screen for HepG2 cell viability”:

Test: Human HepG2 cell viability assay in 384 well format
Assay type: toxicity, cell-based
Design: dose 125 nL, time 70.5 hour; concentration not given beside the values
Details: HepG2 cells, read-out: Inhibition

SMILES | cytotoxicity at 70.5 h [%]
CSCCC(NC(=O)c1ccc2ccccc2n1)C(=O)N(C)C (centres undefined) | 18
COCC(C)N(C)C(=O)NC1CCN(S(C)(=O)=O)CC1 (centres undefined) | -6.45
CSCCC(NC(=O)c1ccc2ccccc2n1)C(=O)NC(C)C (centres undefined) | -3.96
CCN(CCC(=O)OC)S(=O)(=O)c1cnc2c(c1)c(C)nn2C | -4.3
O=C(NCC1CCCCO1)c1ccc(-c2ccco2)[nH]c1=O (centres undefined) | -8.49
Cc1ccc(C(=O)NCC2CCCCO2)c(=O)[nH]1 (centres undefined) | -3.97
Cc1nccn1-c1ccc(CNC(=O)c2ccc(O)nc2)cn1 | -9.46
O=C(NCC1CCCCO1)c1ccc(-c2cccs2)[nH]c1=O (centres undefined) | -0.0205
CN(C1CCN(c2ccccn2)CC1)S(=O)(=O)N1CCOCC1 | -7.57
CC(C)C(C)(C#N)NC(=O)Cn1cc(I)cn1 (centres undefined) | -3.37
CN(Cc1cc(F)ccc1F)CC(C)(CO)CO | -5.92
Cc1nnc(SCCC(=O)N(C)Cc2c(F)cccc2Cl)[nH]1 | -3.01
Cc1nnc(CN(Cc2ccc(Cl)c(Cl)c2)C(C)C)o1 | -14
Cc1cccc(C2(NCCCS(C)(=O)=O)CCCC2)c1 | -6.96
Cc1noc(CNc2c(N3CCCC3)cccc2N2CCCC2)n1 | 7.99
Cc1nnc(SCCC(=O)N(C)Cc2ccc(Cl)s2)[nH]1 | -14.2
CN(Cc1cc(F)ccc1C#N)CC(C)(CO)CO | -4.66
COC1CCC(N(C)c2ccnc(N(C)C)n2)CC1 (centres undefined) | -7.23
N#Cc1c(F)cccc1N1CCN(C(=O)Nc2nncs2)CC1 | 11.5
O=C(Nc1ccnn1Cc1ccccc1Cl)C1CCS(=O)(=O)C1 (centres undefined) | -17
COc1ccc(CNCCn2c(C)nc3ccccc32)cc1O | -8.82
Cc1nc2ccccc2n1CCNCc1cccc(C#N)c1 | -14.8
O=C(CN1CCc2sccc2C1)Nc1nccs1 | -18.3
N#Cc1c(F)cccc1N1CCC(C(=O)Nc2nccs2)CC1 | -17.6
CN(CC(=O)NCCCOc1ccc(F)cc1)c1ccc(C#N)cn1 | -19
Cc1ccc(OCC(C)NC(=O)CN(C)c2ccc(C#N)cn2)cc1 (centres undefined) | -3.51
CC(C)(C)NC(=O)NC(=O)CNc1c(F)cccc1N1CCCC1 | -5.38

SMILES | cytotoxicity at 70.5 h [%]
O=C1CCC(C(=O)Nc2cnn(-c3ccccc3Cl)c2)N1 (centres undefined) | -9.74
CCNC(=O)N1CCc2ccc(NC(=O)NCCOCC)cc21 | 1.97
N#CC1(NC(=O)c2ccc(-c3nc(C4CC4)n[nH]3)cc2)CC1 | -12.9
CCNC(=O)N1CCc2ccc(NC(=O)NCc3ccsc3)cc21 | 9.35
CNC(=O)c1cccnc1N1CCC(OCc2ccccc2)CC1 | -19.8
CNC(=O)c1ccc2c(c1O)OC(C)(C)C2 | -4.08
CC1(CNC(=O)NCc2ccsc2)CCCS1 (centres undefined) | -8.93
CNC(=O)c1cccnc1N1CCC(Oc2ccc(F)cc2)CC1 | -14.2
CC(C)(C)C(O)CN1CCN(CC(=O)NC(C2CC2)C2CC2)CC1 (centres undefined) | 2.37
c1csc(CNc2ccccc2Cn2cncn2)c1 | 7.58
CN(C(=O)c1cccc(OCC(F)F)n1)c1ccc2c(c1)CCO2 | 21.4
N#CC1C(=O)Nc2c(cnn2C2CCCC2)C12CCCC2 (centres undefined) | -2.82
Cc1c(C(=O)NCCC(=O)N2CCCC2)oc2c(F)cccc12 | -6.53
CC(Cc1ccco1)NC(=O)CSc1nnc[nH]1 (centres undefined) | -9.49
CCN(Cc1cccc(F)c1)c1ccc2nnnn2n1 | -1.32
Cc1ccc(C)c2c(C)c(C(=O)NCCC(=O)N3CCOCC3)oc12 | -10.6
CCCN(CCc1cccc(F)c1)c1ccc2nnnn2n1 | -22.2
Cc1ccc(NC(=O)CCC2CC2)cc1N1CCOC1=O | -10.8
CCc1nncn1CCNC(=O)Nc1ccc2c(c1)CCCO2 | 1.85
CCc1nncn1CCNC(=O)Nc1ccc(OC)c(C)c1 | -7.19
CCCn1ccc2cc(NC(=O)NCCn3cnnc3CC)ccc21 | -9.53
CCN(C)CC1CCN(C(=O)Nc2ccc(-c3csnn3)cc2)C1 (centres undefined) | -5.78
CCc1nc2n(n1)CCCC2NC(=O)Nc1cc(OC)ccc1C (centres undefined) | 3.05
O=S(=O)(CC1CCCCC1)NCc1ccnc(O)c1 | -7.43
O=C1NCCO[C@H]2CN(C(=O)Cc3csc4ccccc34)CC[C@@H]12 | -8.16
O=C(NCC1Cn2nnc(-c3ccsc3)c2CO1)N1CCCC1 (centres undefined) | -7.85
O=C(Nc1cccnc1)[C@H]1CN(Cc2cccs2)C[C@H]2OCC[C@@H]12 | -10.8
